Assay results: US20220031723A1, “POWDERED FOOD COMPOSITION COMPRISING ERIOCITRIN” (EUROMED, S.A., priority 2020, published 2022)

Experiments:
[1] = Occurrence of plasma and urine metabolites in volunteers after consuming lemon or orange extract; assay type: in vivo, human
Source text: Through a targeted metabolomic strategy, a total of 17 metabolites were tentatively identified (Table 3). No hesperidin or eriocitrin-derived metabolites were detected in any volunteer at baseline. All the identified metabolites were detected at least in one volunteer, independently of the extract consumed, except for the metabolites M9 (eriodictyol sulfoglucuronide) and M11 (hesperetin sulfoglucuronide), which only were detected after consuming lemon and orange extract, respectively (Table 3). These representative EICs illustrate the metabolites identified in urine (F3 fraction) after consuming lemon (FIG. 3A) and orange (FIG. 3B) extracts, and plasma after consuming lemon (FIG. 3C) and orange (FIG. 3D) extracts. From the 17 metabolites, 16 were detected after consuming lemon extract (except M11), and 15 after consuming orange extract (except M9 and M10 in urine, and M9 and M12 in plasma) (Table 3).

[2] = Urinary excretion of quantified metabolites in collected fractions after extract intake; assay type: in vivo, human; details: mean ± SD; for Metabolite quantified in urine fraction F1: fraction 0 to 4 h; for Metabolite quantified in urine fraction F2: fraction 4 to 8 h; for Metabolite quantified in urine fraction F3: fraction 8 to 10 h; for Metabolite quantified in urine fraction F4: fraction collected at 24 h (10-24 h); for Metabolite quantified in urine, Total F (24 h): sum of fractions F1-F4
Description: Table 4 and Table 5 show the urinary excretion of quantified metabolites at the different fractions collected, i.e., 0-4 h (F1), 4-8 h (F2), 8-10 h (F3), and 10-24 h (F4), after extracts intake.

| Molecule | Occurrence Plasma LE (number of volunteers in whom metabolite was detected) ([1]; human, in vivo) | Occurrence Plasma LE (second column so headed; number of volunteers in whom metabolite was detected) ([1]; human, in vivo) | Occurrence Urine LE (number of volunteers in whom metabolite was detected) ([1]; human, in vivo) | Occurrence Urine LE (second column so headed; number of volunteers in whom metabolite was detected) ([1]; human, in vivo) | Metabolite quantified in urine fraction F1 ([2]; after consuming lemon extract) | Metabolite quantified in urine fraction F2 ([2]; after consuming lemon extract) | Metabolite quantified in urine fraction F3 ([2]; after consuming lemon extract) | Metabolite quantified in urine fraction F4 ([2]; after consuming lemon extract) | Metabolite quantified in urine, Total F (24 h) ([2]; after consuming lemon extract) | Metabolite quantified in urine fraction F1 ([2]; after consuming orange extract) | Metabolite quantified in urine fraction F2 ([2]; after consuming orange extract) | Metabolite quantified in urine fraction F3 ([2]; after consuming orange extract) | Metabolite quantified in urine fraction F4 ([2]; after consuming orange extract) | Metabolite quantified in urine, Total F (24 h) ([2]; after consuming orange extract) | Occurrence Plasma LE (number of volunteers in whom metabolite was detected) ([1]; plasma, after consuming lemon extract (LE), n = 16 volunteers) | Occurrence Plasma LE (second column so headed; number of volunteers in whom metabolite was detected) ([1]; plasma, fourth occurrence column, probably orange extract (OE), n = 16 volunteers) | Occurrence Urine LE (number of volunteers in whom metabolite was detected) ([1]; urine, after consuming lemon extract (LE), n = 16 volunteers) | Occurrence Urine LE (second column so headed; number of volunteers in whom metabolite was detected) ([1]; urine, third occurrence column, probably orange extract (OE), n = 16 volunteers) |
| --- | --- | --- | --- | --- | --- | --- | --- | --- | --- | --- | --- | --- | --- | --- | --- | --- | --- | --- |
| O=C1C[C@@H](c2ccc(O)cc2)Oc2cc(O[C@@H]3O[C@H](C(=O)O)[C@@H](O)[C@H](O)[C@H]3O)cc(O)c21 [M3, Naringenin 7-O-glucuronide] | 16 | 14 | 16 | 16 | 1.0 ± 0.7 μg/mg creatinine | 2.6 ± 4.0 μg/mg creatinine | 1.7 ± 1.9 μg/mg creatinine | 0.3 ± 0.3 μg/mg creatinine | 5.7 ± 6.9 μg/mg creatinine | 0.1 ± 0.1 μg/mg creatinine | 0.2 ± 0.6 μg/mg creatinine | 0.2 ± 0.2 μg/mg creatinine | 0.2 ± 0.3 μg/mg creatinine | 0.7 ± 1.5 μg/mg creatinine | – | – | – | – |
| O=C1C[C@@H](c2ccc(O[C@@H]3O[C@H](C(=O)O)[C@@H](O)[C@H](O)[C@H]3O)cc2)Oc2cc(O)cc(O)c21 [M5, Naringenin 4'-O-glucuronide] | – | – | – | – | 0.8 ± 0.5 μg/mg creatinine | 1.7 ± 2.7 μg/mg creatinine | 1.3 ± 1.5 μg/mg creatinine | 0.4 ± 0.3 μg/mg creatinine | 4.2 ± 5.0 μg/mg creatinine | 0.1 ± 0.1 μg/mg creatinine | 0.3 ± 0.5 μg/mg creatinine | 0.3 ± 0.4 μg/mg creatinine | 0.3 ± 0.5 μg/mg creatinine | 1.0 ± 1.5 μg/mg creatinine | 16 | 14 | 16 | 16 |
| COc1ccc([C@@H]2CC(=O)c3c(O)cc(O[C@@H]4O[C@H](C(=O)O)[C@@H](O)[C@H](O)[C@H]4O)cc3O2)cc1O [M7, Hesperetin 7-O-glucuronide] | 16 | 16 | 16 | 16 | 1.2 ± 1.4 μg/mg creatinine | 4.0 ± 4.7 μg/mg creatinine | 2.7 ± 2.5 μg/mg creatinine | 0.6 ± 0.6 μg/mg creatinine | 8.5 ± 9.2 μg/mg creatinine | 0.2 ± 0.6 μg/mg creatinine | 2.1 ± 5.7 μg/mg creatinine | 2.2 ± 3.6 μg/mg creatinine | 1.1 ± 3.3 μg/mg creatinine | 5.6 ± 13.2 μg/mg creatinine | – | – | – | – |
| COc1ccc(C2CC(=O)c3c(O)cc(O)cc3O2)cc1O[C@@H]1O[C@H](C(=O)O)[C@@H](O)[C@H](O)[C@H]1O (stereo partly drawn) [M8, Hesperetin 3'-O-glucuronide] | 16 | 16 | 16 | 16 | 2.1 ± 2.3 μg/mg creatinine | 10.7 ± 11.3 μg/mg creatinine | 9.2 ± 7.7 μg/mg creatinine | 2.2 ± 2.4 μg/mg creatinine | 24.2 ± 23.7 μg/mg creatinine | 0.5 ± 1.5 μg/mg creatinine | 4.3 ± 11.5 μg/mg creatinine | 3.3 ± 4.2 μg/mg creatinine | 1.8 ± 1.6 μg/mg creatinine | 9.9 ± 18.9 μg/mg creatinine | – | – | – | – |
| O=C1C[C@@H](c2ccc(O)c(O)c2)Oc2cc(O)cc(O)c21 [M12, Eriodictyol] | 16 | 0 | 14 | 4 | – | – | – | – | – | – | – | – | – | – | – | – | – | – |
| COc1ccc(C2CC(=O)c3c(O)cc(O)cc3O2)cc1OS(=O)(=O)O (stereo not drawn) [M14, Hesperetin 3'-O-sulfate] | 16 | 16 | 16 | 16 | 1.9 ± 2.6 μg/mg creatinine | 4.3 ± 4.5 μg/mg creatinine | 3.3 ± 3.1 μg/mg creatinine | 0.7 ± 0.6 μg/mg creatinine | 9.0 ± 9.1 μg/mg creatinine | 0.1 ± 0.3 μg/mg creatinine | 1.2 ± 3.3 μg/mg creatinine | 1.9 ± 3.1 μg/mg creatinine | 0.6 ± 0.6 μg/mg creatinine | 3.8 ± 7.3 μg/mg creatinine | – | – | – | – |
| O=C1C[C@@H](c2ccc(O)cc2)Oc2cc(O)cc(O)c21 [M15, Naringenin] | 6 | 2 | 9 | 5 | – | – | – | – | – | – | – | – | – | – | – | – | – | – |
| COc1cc([C@@H]2CC(=O)c3c(O)cc(O)cc3O2)ccc1O [M16, Homoeriodictyol] | 15 | 1 | 12 | 1 | – | – | – | – | – | – | – | – | – | – | – | – | – | – |
| COc1ccc([C@@H]2CC(=O)c3c(O)cc(O)cc3O2)cc1O [M17, Hesperetin] | 8 | 3 | 5 | 8 | – | – | – | – | – | – | – | – | – | – | – | – | – | – |
| Eriodictyol sulfate [M13] | 16 | 10 | 16 | 12 | 4.6 ± 5.0 μg/mg creatinine | 14.6 ± 17.3 μg/mg creatinine | 11.9 ± 12.6 μg/mg creatinine | 1.5 ± 1.5 μg/mg creatinine | 32.6 ± 36.5 μg/mg creatinine | 0.02 ± 0.01 μg/mg creatinine | 0.1 ± 0.1 μg/mg creatinine | 0.2 ± 0.4 μg/mg creatinine | 0.3 ± 0.4 μg/mg creatinine | 0.6 ± 0.9 μg/mg creatinine | – | – | – | – |
| Eriodictyol sulfoglucuronide [M9] | 15 | 0 | 5 | 0 | – | – | – | – | – | – | – | – | – | – | – | – | – | – |
| Hesperetin sulfoglucuronide [M11] | 0 | 8 | 0 | 7 | – | – | – | – | – | – | – | – | – | – | – | – | – | – |
| Homoeriodictyol glucuronide [M6] | 16 | 3 | 16 | 3 | 13.9 ± 16.2 μg/mg creatinine | 48.1 ± 90.0 μg/mg creatinine | 37.2 ± 56.9 μg/mg creatinine | 6.8 ± 8.0 μg/mg creatinine | 106 ± 171 μg/mg creatinine | – | – | – | – | – | – | – | – | – |
